pEC50: −log10 of the molar value. A value given as a limit tells only on which side of the number the result lay.

A short description of data set [1]: Microsomal stability, human liver microsomes (predicted hepatic clearance). To be noted: predicted from in vitro microsomal stability data.
The target in data set [2] is GLP-1R (Homo sapiens, UniProt P43220). Put plainly: GLP-1R activation: cAMP increase in CHO cells stably expressing GLP-1R. It is filed as cell-based. The conditions noted are these: cAMP increase, CHO cells stably expressing GLP-1R, 10 point dose response, 30 minutes incubation; read-out: EC50.
GLP-1R, sequence (P43220 24-463): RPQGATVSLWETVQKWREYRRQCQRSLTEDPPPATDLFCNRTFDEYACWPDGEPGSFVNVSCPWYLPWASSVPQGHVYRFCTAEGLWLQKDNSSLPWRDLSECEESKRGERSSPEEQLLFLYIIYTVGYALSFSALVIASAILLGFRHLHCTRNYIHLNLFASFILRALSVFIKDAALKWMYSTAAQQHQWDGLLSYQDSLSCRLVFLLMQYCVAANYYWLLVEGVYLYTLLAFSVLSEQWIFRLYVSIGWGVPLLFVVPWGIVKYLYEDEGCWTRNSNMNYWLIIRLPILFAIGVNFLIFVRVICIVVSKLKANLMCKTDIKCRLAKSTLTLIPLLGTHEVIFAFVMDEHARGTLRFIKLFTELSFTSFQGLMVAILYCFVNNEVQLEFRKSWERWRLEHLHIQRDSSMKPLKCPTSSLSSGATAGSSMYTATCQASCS

What is called pEC50 is −log10 of the EC50, conventionally taken in molar units. `COCCn1c(Cc2ccc(-c3cccc(OCc4ccccc4NC(=O)OC(C)(C)C)n3)cc2F)nc2ccc(C(=O)O)cc21` [Example 506, 2-(4-(6-((2-((tert-butoxycarbonyl)amino)benzyl)oxy)pyridin-2-yl)-2-fluorobenzyl)-1-(2-methoxyethyl)-1H-benzo[d]imidazole-6-carboxylic acid]: in data set [1], the “Predicted Hepatic Clearance (Pred. Cl.)” value is given as 0.75 L/h/kg. For the same molecule, in data set [2], the pEC50 was 5.66.

In the case of `COCCn1c(Cc2ccc(-c3cccc(OCc4ccccc4C(F)F)n3)cc2F)nc2ccc(C(=O)O)cc21` [Example 507, 2-(4-(6-((2-(difluoromethyl)benzyl)oxy)pyridin-2-yl)-2-fluorobenzyl)-1-(2-methoxyethyl)-1H-benzo[d]imidazole-6-carboxylic acid], the “Predicted Hepatic Clearance (Pred. Cl.)” value in data set [1] is 1.15 L/h/kg. Besides, the pEC50 in data set [2] was 6.44.

Regarding `COCCn1c(Cc2ccc(-c3cccc(OCc4ccc(C(F)(F)F)cc4)n3)cc2F)nc2ccc(C(=O)O)cc21` [Example 508, 2-(2-fluoro-4-(6-((4-(trifluoromethyl)benzyl)oxy)pyridin-2-yl)benzyl)-1-(2-methoxyethyl)-1H-benzo[d]imidazole-6-carboxylic acid], the “Predicted Hepatic Clearance (Pred. Cl.)” value in data set [1] is given as 0.15 L/h/kg. The pEC50 in data set [2] was 7.78.

In the case of `COCCn1c(Cc2ccc(-c3cccc(OCc4cccc(COC)c4)n3)cc2F)nc2ccc(C(=O)O)cc21` [Example 509, 2-(2-fluoro-4-(6-((3-(methoxymethyl)benzyl)oxy)pyridin-2-yl)benzyl)-1-(2-methoxyethyl)-1H-benzo[d]imidazole-6-carboxylic acid], in data set [1], the “Predicted Hepatic Clearance (Pred. Cl.)” value is 0.7 L/h/kg. The pEC50 in data set [2] is 6.99.

As to `COCCn1c(Cc2ccc(-c3cccc(OCc4cccnc4OC)n3)cc2F)nc2ccc(C(=O)O)cc21` [Example 511, 2-(2-fluoro-4-(6-((2-methoxypyridin-3-yl)methoxy)pyridin-2-yl)benzyl)-1-(2-methoxyethyl)-1H-benzo[d]imidazole-6-carboxylic acid], in data set [1], the “Predicted Hepatic Clearance (Pred. Cl.)” value was 1.12 L/h/kg. Moreover, the pEC50 in data set [2] was 7.53.

Take `COCCn1c(Cc2ccc(-c3cccc(OCc4nccn4C)n3)cc2F)nc2ccc(C(=O)O)cc21` [Example 512, 2-(2-fluoro-4-(6-((1-methyl-1H-imidazol-2-yl)methoxy)pyridin-2-yl)benzyl)-1-(2-methoxyethyl)-1H-benzo[d]imidazole-6-carboxylic acid]: in data set [1], the “Predicted Hepatic Clearance (Pred. Cl.)” value is reported as 0.46 L/h/kg. Also, the pEC50 in data set [2] is 5.18.

As to `COCCn1c(Cc2ccc(-c3cccc(OCn4ccc(C#N)cc4=O)n3)cc2F)nc2ccc(C(=O)O)cc21` [Example 513, 2-(4-(6-((4-cyano-2-oxopyridin-1(2H)-yl)methoxy)pyridin-2-yl)-2-fluorobenzyl)-1-(2-methoxyethyl)-1H-benzo[d]imidazole-6-carboxylic acid], the “Predicted Hepatic Clearance (Pred. Cl.)” value in data set [1] is 0.31 L/h/kg. For the same molecule, in data set [2], the pEC50 was 7.26.

With `COCCn1c(Cc2ccc(-c3cccc(OCc4ccccc4F)n3)cc2F)nc2ccc(C(=O)O)cc21` [Example 514, 2-(2-fluoro-4-(6-((2-fluorobenzyl)oxy)pyridin-2-yl)benzyl)-1-(2-methoxyethyl)-1H-benzo[d]imidazole-6-carboxylic acid], the “Predicted Hepatic Clearance (Pred. Cl.)” value in data set [1] was 0.91 L/h/kg. Besides, in data set [2], the pEC50 is 7.22.

As for `COCCn1c(Cc2ccc(-c3cccc(O[C@H](C)c4ccccc4)n3)cc2F)nc2ccc(C(=O)O)cc21` [Example 515, (R)-2-(2-fluoro-4-(6-(1-phenylethoxy)pyridin-2-yl)benzyl)-1-(2-methoxyethyl)-1H-benzo[d]imidazole-6-carboxylic acid], the “Predicted Hepatic Clearance (Pred. Cl.)” value in data set [1] was 0.45 L/h/kg. In addition, in data set [2], the pEC50 is 6.06.

`COCCn1c(Cc2ccc(-c3cccc(OCc4ccccc4NS(C)(=O)=O)n3)cc2F)nc2ccc(C(=O)O)cc21` [Example 516, 2-(2-fluoro-4-(6-((2-(methylsulfonamido)benzyl)oxy)pyridin-2-yl)benzyl)-1-(2-methoxyethyl)-1H-benzo[d]imidazole-6-carboxylic acid]: the “Predicted Hepatic Clearance (Pred. Cl.)” value in data set [1] is on record as less than 0.11 L/h/kg. Further, the pEC50 in data set [2] was 5.61.

Take `O=C(O)c1ccc2nc(Cc3cc(F)c(-c4cccc(OCc5ccc(C(F)(F)F)cc5)n4)cc3F)n(C[C@@H]3CCO3)c2c1` [Example 517, (S)-2-(2,5-difluoro-4-(6-((4-(trifluoromethyl)benzyl)oxy)pyridin-2-yl)benzyl)-1-(oxetan-2-ylmethyl)-1H-benzo[d]imidazole-6-carboxylic acid]: in data set [1], the “Predicted Hepatic Clearance (Pred. Cl.)” value is given as less than 0.11 L/h/kg. In addition, in data set [2], the pEC50 was 10.22.

`COCCn1c(Cc2ncc(-c3cccc(OCc4ccc(C#N)cc4F)n3)cc2Cl)nc2ccc(C(=O)O)cc21` [Example 518, 2-((5′-chloro-6-((4-cyano-2-fluorobenzyl)oxy)-[2,3′-bipyridin]-6′-yl)methyl)-1-(2-methoxyethyl)-1H-benzo[d]imidazole-6-carboxylic acid]: in data set [1], the “Predicted Hepatic Clearance (Pred. Cl.)” value is 0.32 L/h/kg. Also, the pEC50 in data set [2] was 7.37.

Turning to `CCn1c(Cn2c(Cc3ccc(-c4cccc(OCc5ccc(C#N)cc5F)n4)cc3F)nc3ccc(C(=O)O)cc32)cnc1C` [Example 519, 2-(4-(6-((4-cyano-2-fluorobenzyl)oxy)pyridin-2-yl)-2-fluorobenzyl)-1-((l-ethyl-2-methyl-1H-imidazol-5-yl)methyl)-1H-benzo[d]imidazole-6-carboxylic acid], in data set [1], the “Predicted Hepatic Clearance (Pred. Cl.)” value is reported as 0.21 L/h/kg. Besides, the pEC50 in data set [2] was 7.41.

As to `CCn1cncc1Cn1c(Cc2ccc(-c3cccc(OCc4ccc(C#N)cc4F)n3)c(F)c2)nc2ccc(C(=O)O)cc21` [Example 520, 2-(4-(6-((4-cyano-2-fluorobenzyl)oxy)pyridin-2-yl)-3-fluorobenzyl)-1-((1-ethyl-1H-imidazol-5-yl)methyl)-1H-benzo[d]imidazole-6-carboxylic acid], the “Predicted Hepatic Clearance (Pred. Cl.)” value in data set [1] is 0.375 L/h/kg. Besides, in data set [2], the pEC50 was 9.44.

In the case of `N#Cc1ccc(COc2cccc(-c3ccc(Cc4nc5ccc(C(=O)O)cc5n4CC4(CF)CC4)cc3F)n2)c(F)c1` [Example 521, 2-(4-(6-((4-cyano-2-fluorobenzyl)oxy)pyridin-2-yl)-3-fluorobenzyl)-1-((1-(fluoromethyl)cyclopropyl)methyl)-1H-benzo[d]imidazole-6-carboxylic acid], the “Predicted Hepatic Clearance (Pred. Cl.)” value in data set [1] is reported as 0.405 L/h/kg. The negative-log EC50 (pEC50) in data set [2] is 9.27.

With `CCn1cncc1Cn1c(Cc2ccc(-c3cccc(OCc4ccc(C#N)cc4F)n3)cc2C#N)nc2ccc(C(=O)O)cc21` [Example 522, 2-(2-cyano-4-(6-((4-cyano-2-fluorobenzyl)oxy)pyridin-2-yl)benzyl)-1-((1-ethyl-1H-imidazol-5-yl)methyl)-1H-benzo[d]imidazole-carboxylic acid], the “Predicted Hepatic Clearance (Pred. Cl.)” value in data set [1] was less than 0.11 L/h/kg. In addition, the pEC50 in data set [2] was 6.86.

Regarding `N#Cc1ccc(COc2cccc(-c3ccc(Cc4nc5ccc(C(=O)O)cc5n4C[C@@H]4CCO4)cc3F)n2)c(F)c1` [Example 523, (S)-2-(4-(6-((4-cyano-2-fluorobenzyl)oxy)pyridin-2-yl)-3-fluorobenzyl)-1-(oxetan-2-ylmethyl)-1H-benzo[d]imidazole-6-carboxylic acid], in data set [1], the “Predicted Hepatic Clearance (Pred. Cl.)” value is listed as 0.3 L/h/kg. Moreover, the pEC50 in data set [2] was 9.29.

The values above are taken from patent US11702404B2, “GLP-1R modulating compounds” (priority 2019, dated 2023).
